Measurements: patent US20230124720A1, “APPLICATION OF ACRIDINEDIONE COMPOUND IN PREPARATION OF ANTI-DIABETIC DRUGS” (THE FOURTH MILITARY MEDICAL UNIVERSITY, priority 2020, published 2023)

Columns and labels:
[1] = tested on: MIN6 cells; test: Western Blot / immunofluorescence of insulin signaling related molecules in insulin-resistant MIN6 cells; assay type: cell-based, mouse; conditions: insulin-resistant MIN6 cells, 24 h, P<0.001
Method: MIN6 cells were seeded in culture dishes at the appropriate density and cultured as described in step 2.1 to a confluency of about 80%. Cells were divided into the following 5 groups: (1) normal control group (Con): cultured with blank 1640 medium; (2) insulin resistance model panel (IR): treatment with 0.125 mmol/L PA for 24 h to induce establishment of a MIN6 cell insulin resistance model; (3) 3 μmol/L ADD-16 administration group (ADD I): 3 μmol/L ADD-16 intervention was given for 24 h after successful establishment of the insulin resistance model; (4) 10 μmol/L ADD-16 administration group (ADD II): 10 μmol/L ADD-16 intervention was given for 24 h after successful establishment of the insulin resistance model; (5) TAK875 control group (TAK875): 10 μmol/L TAK875 was administered as a positive control drug intervention for 24 h after successful establishment of the insulin resistance model. At the end of the group administration, groups of cells were harvested for WB or IF experiments.

[2] = tested on: MIN6 cells; test: Insulin secretion in PA-induced insulin-resistant MIN6 cells; assay type: cell-based, mouse; conditions: PA-induced IR model, 10 μmol/L, 24 h, 2.8 and 16.7 mmol/L glucose; P<0.001
Method: MIN6 cells were seeded in 24-well plates and cultured as described in step 2.1 to a cell confluency of more than 80% and administrated in the following groups, with 12 replicates per group: (1) normal control group (Con): cultured with blank 1640 medium; (2) insulin resistance model panel (IR): treated with 0.125 mmol/L PA for 24 h to induce establishment of an insulin resistance model; (3) ADD-16 administration group (ADD): 10 μmol/L ADD-16 intervention was administered for 24 h after successful establishment of the insulin resistance model; (4) TAK875 control group (TAK875): 10 μmol/L TAK875 was administered as a positive control drug intervention for 24 h after successful establishment of the insulin resistance model; (5) metformin control group (MT): 10 mmol/L metformin was administered as a positive control drug intervention for 24 h after successful establishment of the insulin resistance model; (6) sitagliptin control group (ST): 10 μmol/L sitagliptin was administered as a positive control drug intervention for 24 h after successful establishment of the insulin resistance model. After the group administration, the medium was aspirated and washed 2 times with a KRB buffer without sugar, followed by the addition of the KRB buffer without sugar. […] After incubation at 37° C. for 1 h, all the medium in the wells was aspirated and centrifuged at 2000 rmp/min for 20 min, and the supernatant was collected and stored at −20° C. The insulin content was measured for each group.

[3] = tested on: STZ-induced T2DM rats; test: Postprandial blood glucose in STZ-induced T2DM rats; assay type: in vivo, rat; conditions: end of administration
Method: (§1) 150 male SD rats, housed in cages in a clean constant temperature (23±2° C.) and humidity (55±10%) animal house, were manually adjusted on a daily 12 h/12 h diurnal light cycle with free access to water. After 3 days of adaptive feeding, 150 rats were randomly divided into normal and model groups. The normal (Con, n=15) group of rats remained on raw chow and the model group (n=135) of rats were given high fat high sugar chow. All rats were fed twice daily and the amount of feed was adjusted as needed to ensure adequate feed. After 8 weeks of group feeding, the model group rats were given an intraperitoneal injection of 25 mg/kg STZ solution with a 12 h fast prior to injection. After injection, feeding was continued as in the original method, blood was taken from the tail vein at 72 h for blood glucose measurement, and rats with fasting blood glucose levels ≥11.1 mmol/L on different days were screened for successful artificial induction of T2DM and administered in groups for the next experiment. 135 rats with successful modeling were randomly divided into 9 groups: […] (2) 0.01 mg/kg ADD-16 administration group (ADD I, n=15): daily administration of 0.01 mg/kg ADD-16 solution by gavage; (3) 0.1 mg/kg ADD-16 administration group (ADD II, n=15): daily administration of a 0.1 mg/kg ADD-16 solution by gavage; (4) 1 mg/kg ADD-16 administration group (ADD III, n=15): daily administration of a 1 mg/kg ADD-16 solution by gavage; (5) 3 mg/kg ADD-16 administration group (ADD IV, n=15): daily administration of a 3 mg/kg ADD-16 solution by gavage; (6) 10 mg/kg ADD-16 administration group (ADD V, n=15): daily administration of a 10 mg/kg ADD-16 solution by gavage; (7) 50 mg/kg ADD-16 administration group (ADD VI, n=15): daily administration of a 50 mg/kg ADD-16 solution by gavage; […] (9) Sitagliptin control group (ST, n=15): daily administration of a 6 mg/kg sitagliptin solution by gavage. […] Relevant indicators of lipid metabolism were measured after the end of the study.

[4] = tested on: STZ-induced T2DM rats; test: Insulin tolerance test (ITT) in T2DM rats; assay type: in vivo, rat
Method: as §1, with “study. […] After the 120 min blood glucose value determination was completed, the diet was resumed. In the test, the condition of the rats was observed, and when abnormalities occurred, the experiment was stopped in time and a glucose solution was given by gavage to prevent death due to hypoglycemia.” for “study.”

[5] = MT group, 250 mg/kg daily by gavage
[6] = ST group, 6 mg/kg daily by gavage

Compound | expression of insulin signaling-related molecules, Western Blot (in words) [1] | insulin secretion level in insulin-resistant MIN6 cells (in words) [2] | reduction in blood glucose compared to the TD group [3, 5] [%] | decrease of ITT AUC compared to the TD group [4, 5] [%] | reduction in blood glucose compared to the TD group [3, 6] [%] | decrease of ITT AUC compared to the TD group [4, 6] [%]
Cc1cc(OCCCS(C)(=O)=O)cc(C)c1-c1cccc(COc2ccc3c(c2)OC[C@H]3CC(=O)O)c1 [TAK875, reference compound] | upregulate GPR40, PGC-1α, P-P38, P-EP300, PPARγ, P-AKT, PI3K, IRS1 and GLUT4 expression | even higher than in Con group |  |  |  | 
CN(C)C(=N)N=C(N)N [metformin, reference compound] |  |  | 45.0 | 39.9 |  | 
N[C@@H](CC(=O)N1CCn2c(nnc2C(F)(F)F)C1)Cc1cc(F)c(F)cc1F [sitagliptin, reference compound] |  | even higher than in Con group |  |  | 61.5 | 51.4
